{"source": "patent US10000765B2", "about": "“Gene encoding cytochrome P450, and use thereof” (NATIONAL INSTITUTE OF AGROBIOLOGICAL SCIENCES, priority 2011, dated 2018)", "key": {"[1]": {"test_system": "Rice (Nipponbare) calluses transformed with pCAMBIA1390-KasCYP72A31", "test": "Redifferentiation and rooting test, rice callus transformed with pCAMBIA1390-KasCYP72A31", "format": "cell-based, Oryza sativa", "experimental": "After selective culturing, the callus was transplanted onto a rice redifferentiation medium RE-III (containing 50 ppm hygromycin or 0.25 μM bispyribac sodium), cultured at 27 degree C. under 16L/8D conditions, and led to redifferentiate. The callus was plated after 2 weeks. At additional about 2 to 3 weeks, a redifferentiated, transformed rice (T0) was obtained. Once a differentiated shoot and/or root had appeared, the rice was transplanted onto a hormone-free (HF) medium (containing 50 ppm hygromycin or 0.25 μM bispyribac sodium).\nAccording to Example 5, an HptII::35Spro::Kasalath CYP72A31::Tnos vector plasmid (pCAMBIA1390-KasCYP72A31, a kasCYP72A31 overexpression construct) or, as controls, an HptII::35Spro::sGFP::Tnos vector plasmid (pCAMBIA1302-sGFP, an sGFP overexpression construct) or an OsALS (W548L/S627I)::OsAct-1pro::sGFP::Tnos vector plasmid (pSTARA-sGFP, a BS-resistant construct) was introduced into a rice variety (a cultivar: Nipponbare) by using an Agrobacterium method. According to a schedule designated in FIG. 12A), transformed calluses were selected with 50 ppm hygromycin. […] Of all the calluses, 43 calluses were transplanted onto a redifferentiation medium containing 0.25 μM BS.\nRice (Nipponbare) calluses transformed with a pCAMBIA1390-KasCYP72A31 construct in Example 8 were obtained by 50 ppm hygromycin selection. When these calluses were transplanted onto a redifferentiation medium containing 50 ppm hygromycin, shoots and roots were differentiated from the callus at a redifferentiation efficiency of 95% (38/40 calluses). Subsequently, 25 redifferentiation calluses transformed with a pCAMBIA1390-KasCYP72A31 construct were transplanted onto a hormone-free medium containing 1 μM BS. As a result, 7 calluses had extending roots (a root extension rate of 28%. FIG. 15)."}, "[2]": {"test_system": "Arabidopsis thaliana K33-1-3 and K33-2-4", "test": "Growth test in BS-containing medium, Arabidopsis transformed with Kasalath-derived CYP72A33", "format": "in vivo", "settings": "day 10 from onset of cultivation, compared to NT", "source_text": "In this Example, Agrobacterium as prepared in Example 4 was used to introduce HptII::35Spro::Kasalath CYP72A31::Tnos vector plasmid (pCAMBIA1390-KasCYP72A31), HptII::35Spro::Kasalath CYP72A32::Tnos vector plasmid (pCAMBIA1390-KasCYP72A32), or HptII::35Spro::Kasalath CYP72A33::Tnos vector plasmid (pCAMBIA1390-KasCYP72A33) into Arabidopsis thaliana (ecotype: Col-0) by using a floral-dip method. The floral-dip method followed a standard method. […] K31-4-2 and K31-6-5 were selected as fixed lines derived from pCAMBIA1390-KasCYP72A31; K32-1-1, K32-3-1, and K32-5-1 were selected as fixed lines derived from pCAMBIA1390-KasCYP72A32; and K33-1-3 and K33-2-4 were selected as fixed lines derived from pCAMBIA1390-KasCYP72A33. Their seeds were seeded in a medium containing each concentration of BS, and cultivated for 10 days. FIGS. 16A and 16B illustrate the results.\nNext, 15 seeds for each of non-transformed Arabidopsis thaliana (NT which is denoted by “Col-0” in FIGS. 19A-19C) and transformed plant bodies (K33-1-3 which is denoted by “K33oe-1-3” in FIGS. 19A-19C and K33-2-4 which is denoted by “K33oe-2-4” in FIGS. 19A-19C) were cultivated on a medium containing each concentration of BS. […]"}, "[3]": {"test_system": "Rice (Nipponbare) calluses transformed with pCAMBIA1390-KasCYP72A31", "test": "Selection of drug-resistant callus in N6D medium, pCAMBIA1390-KasCYP72A31", "format": "cell-based, Oryza sativa", "settings": "4 weeks", "experimental": "Rice transformed with pCAMBIA1390-KasCYP72A31 was used to examine whether a Kasalath-derived CYP72A31 gene was able to be used as a selection marker for transformation with BS as a selection reagent. According to Example 5, rice (Nipponbare) was transformed with pCAMBIA1390-KasCYP72A31 or pSTARA-sGFP by using an Agrobacterium method.\nRice (Nipponbare) calluses transformed with pCAMBIA1390-KasCYP72A31 were cultured for 4 weeks in an N6D medium containing 0.1 or 0.25 μM BS or an N6D medium containing 50 ppm hygromycin to select drug-resistant calluses. Also, rice calluses transformed with pSTARA-sGFP were selected in a similar manner in an N6D medium containing 0.25 μM BS."}, "[4]": {"test_system": "non-transformed Arabidopsis thaliana (NT)", "test": "Drug sensitivity test on drug-containing MS medium, non-transformed Arabidopsis thaliana", "format": "in vivo", "experimental": "A bag of mixed salts for Murashige-Skoog (MS) medium (manufactured by Wako Pure Chemical Industries, Ltd.) 20 g of sucrose, 3 mg of thiamin hydrochloride, 5 mg of nicotinic acid, and 0.5 mg of pyridoxine hydrochloride were dissolved in distilled water, and filled up to 1 L with distilled water. After pH adjustment to 5.8 to 6.3 with 1 M KOH, 3 g of Gelrite was added to the solution, and dissolved using a microwave. After that, the mixture was autoclaved to prepare a sterile MS medium. A test drug was added to this sterile MS medium so as to make a final concentration of 1.3, 4.1, 12, 37, 110, or 330 nM. Arabidopsis thaliana from a sterilized seed was seeded in the drug-containing MS medium, and cultivated at 22° C. for 12 to 14 days in a continuous light period.\nNote that the drugs used in this Example were bispyribac-sodium, pyrithiobac-sodium, pyriminobac, bensulfuron-methyl, penoxsulam, pyrazosulfuron-ethyl, amidosulfuron, imazosulfuron, nicosulfuron, and propyrisulfuron."}}, "data": [{"compound": "COc1cc(OC)nc(Oc2cccc(Oc3nc(OC)cc(OC)n3)c2C(=O)O)n1", "note": "[BS, bispyribac sodium]", "values": [{"measurement": "Calluses with extending roots of all redifferentiation calluses", "setting": "[1]; hormone-free medium containing 0.25 μM BS", "value": 73, "unit": "%"}, {"measurement": "Root extension rate", "setting": "[1]; hormone-free medium containing 1 μM BS", "value": 28, "unit": "%"}, {"measurement": "Redifferentiation efficiency", "setting": "[1]; redifferentiation medium containing 0.25 μM BS", "value": 91, "unit": "%"}, {"measurement": "BS sensitivity (germinated seeds, emerging of true leaves, fresh weight of above-ground part)", "setting": "[2]", "value": "BS sensitivity equivalent to NT"}, {"measurement": "Selection efficiency (ratio of the resulting transformed calluses/all calluses)", "setting": "[3]; N6D medium containing 0.1 μM BS", "value": 71, "unit": "%"}, {"measurement": "Selection efficiency (ratio of the resulting transformed calluses/all calluses)", "setting": "[3]; N6D medium containing 0.25 μM BS", "value": 61, "unit": "%"}, {"measurement": "Rate of emerging of true leaf (%)", "setting": "[4]; drug 1.3 nM, day 12 after seeding", "value": 44, "unit": "%"}, {"measurement": "Rate of emerging of true leaf (%)", "setting": "[4]; drug 1.3 nM, day 14 after seeding", "value": 100, "unit": "%"}, {"measurement": "Rate of emerging of true leaf (%)", "setting": "[4]; drug 4.1 nM, day 12 after seeding", "value": 67, "unit": "%"}, {"measurement": "Rate of emerging of true leaf (%)", "setting": "[4]; drug 4.1 nM, day 14 after seeding", "value": 100, "unit": "%"}, {"measurement": "Rate of emerging of true leaf (%)", "setting": "[4]; drug 12 nM, day 12 after seeding", "value": 56, "unit": "%"}, {"measurement": "Rate of emerging of true leaf (%)", "setting": "[4]; drug 12 nM, day 14 after seeding", "value": 50, "unit": "%"}, {"measurement": "Rate of emerging of true leaf (%)", "setting": "[4]; drug 37 nM, day 12 after seeding", "value": 0, "unit": "%"}, {"measurement": "Rate of emerging of true leaf (%)", "setting": "[4]; drug 37 nM, day 14 after seeding", "value": 0, "unit": "%"}, {"measurement": "Rate of emerging of true leaf (%)", "setting": "[4]; drug 110 nM, day 12 after seeding", "value": 0, "unit": "%"}, {"measurement": "Rate of emerging of true leaf (%)", "setting": "[4]; drug 110 nM, day 14 after seeding", "value": 0, "unit": "%"}, {"measurement": "Rate of emerging of true leaf (%)", "setting": "[4]; drug 330 nM, day 12 after seeding", "value": 0, "unit": "%"}, {"measurement": "Rate of emerging of true leaf (%)", "setting": "[4]; drug 330 nM, day 14 after seeding", "value": 0, "unit": "%"}]}]}
